Reference: ChEMBL document CHEMBL1201862, “PubChem BioAssay data set” (2004)
Activity calls are given as the source filed them.

What was measured:
[1] = molecular target: T1, Oxysterols receptor LXR-beta (Homo sapiens, UniProt P55055); type: functional, cell-based;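 note: Cell-based luminescence dose-response assay of agonist activity at LXR, run as a confirmatory counterscreen to a daf-12 agonist screen; agonist potency from rising luciferase signal of a Gal4-LXR reporter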
T1 sequence (P55055 whole entry): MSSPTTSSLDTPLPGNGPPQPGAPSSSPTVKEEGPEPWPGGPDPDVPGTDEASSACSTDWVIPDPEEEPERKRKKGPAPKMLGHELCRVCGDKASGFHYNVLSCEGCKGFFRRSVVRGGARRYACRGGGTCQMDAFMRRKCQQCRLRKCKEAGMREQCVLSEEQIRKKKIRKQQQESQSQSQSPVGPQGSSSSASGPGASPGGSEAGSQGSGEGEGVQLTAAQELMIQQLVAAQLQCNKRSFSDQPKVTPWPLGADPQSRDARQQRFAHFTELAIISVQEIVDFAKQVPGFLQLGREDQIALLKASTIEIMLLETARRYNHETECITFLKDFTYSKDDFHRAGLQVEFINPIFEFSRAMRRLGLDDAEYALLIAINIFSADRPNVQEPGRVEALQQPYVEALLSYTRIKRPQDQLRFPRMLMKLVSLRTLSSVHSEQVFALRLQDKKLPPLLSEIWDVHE

[2] = molecular target: T1, Oxysterols receptor LXR-beta; assay: LXR agonists, Gal4 luciferase reporter, dose response, counter-screen for ssDAF-12 agonist project, cell-based, luminescence, HEK293, S. stercoralis campaign (AID 720737); type: functional; conditions: read-out: IC50 (the source's name)
[3] = Luminescence-based cell-based high throughput dose response assay to identify activators of the DAF-12 from the parasite S. stercoralis (ssDAF-12).; type: functional
Prothrombin = Prothrombin (Homo sapiens, UniProt P00734); assay: Thrombin 1536 HTS Dose Response Confirmation. [Related pubchem assays: 1046 (Thrombin 1536 HTS; hits were confirmed in this assay)]; type: functional
[4] = molecular target: Peroxisome proliferator-activated receptor gamma/Nuclear receptor coactivator 3 (Homo sapiens, UniProt P37231); type: functional;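 note: agonist potency for raising coactivator recruitment to the receptor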
[5] = molecular target: Peroxisome proliferator-activated receptor gamma/Nuclear receptor coactivator 1 (Homo sapiens, UniProt P37231); type: functional;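 note: agonist potency as compounds enhance coactivator SRC-1 recruitment to PPARgamma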
[6] = molecular target: Peroxisome proliferator-activated receptor gamma/Nuclear receptor coactivator 2 (Homo sapiens, UniProt P37231); type: functional;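 note: agonist potency for raising coactivator recruitment to the receptor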
[7] = molecular target: T2, Mannose-6-phosphate isomerase (Homo sapiens, UniProt P34949); assay: MPI inhibition at elevated mannose 6-phosphate – biochemical, fluorescence intensity, high mannose 6-phosphate, primary screen (AID 1220)
T2 sequence (P34949 whole entry): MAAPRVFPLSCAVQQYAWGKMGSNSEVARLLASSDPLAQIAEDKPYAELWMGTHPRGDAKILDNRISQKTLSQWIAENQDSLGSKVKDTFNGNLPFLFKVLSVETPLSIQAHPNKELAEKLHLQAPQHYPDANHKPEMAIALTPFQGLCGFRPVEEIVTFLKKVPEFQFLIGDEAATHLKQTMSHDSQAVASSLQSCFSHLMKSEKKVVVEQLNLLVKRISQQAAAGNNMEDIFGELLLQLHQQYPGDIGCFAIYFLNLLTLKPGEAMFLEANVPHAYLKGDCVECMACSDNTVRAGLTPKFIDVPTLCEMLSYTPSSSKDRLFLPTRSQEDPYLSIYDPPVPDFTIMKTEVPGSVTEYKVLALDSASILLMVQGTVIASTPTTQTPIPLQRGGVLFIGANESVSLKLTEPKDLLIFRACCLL

Caspase-6 = molecular target: T3, Caspase-6 (Homo sapiens, UniProt P55212); assay: inhibition of CASP6 peptide cleavage – biochemical, VEID-R110 fluorescence, cherry-pick, dose response (AID 720632)
T3 sequence (P55212 whole entry): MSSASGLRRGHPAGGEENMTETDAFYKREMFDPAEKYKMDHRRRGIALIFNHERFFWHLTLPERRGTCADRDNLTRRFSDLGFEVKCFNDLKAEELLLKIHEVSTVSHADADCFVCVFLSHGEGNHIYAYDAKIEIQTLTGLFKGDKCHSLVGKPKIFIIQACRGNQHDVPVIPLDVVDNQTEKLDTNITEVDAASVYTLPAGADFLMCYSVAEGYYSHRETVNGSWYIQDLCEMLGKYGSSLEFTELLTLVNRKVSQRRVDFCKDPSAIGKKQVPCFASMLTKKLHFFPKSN

P388 = assay: cells; type: functional; conditions: Mus musculus
[8] = molecular target: T4, Polyadenylate-binding protein 1 (Homo sapiens, UniProt P11940); assay: MLLE domain peptide-binding blockers, IC50 – biochemical, fluorescence polarization, FITC-PAM2 peptide, dose response (AID 602259); type: functional; conditions: read-out: IC50_Mean
T4 sequence (P11940 whole entry, the tested form may be a part): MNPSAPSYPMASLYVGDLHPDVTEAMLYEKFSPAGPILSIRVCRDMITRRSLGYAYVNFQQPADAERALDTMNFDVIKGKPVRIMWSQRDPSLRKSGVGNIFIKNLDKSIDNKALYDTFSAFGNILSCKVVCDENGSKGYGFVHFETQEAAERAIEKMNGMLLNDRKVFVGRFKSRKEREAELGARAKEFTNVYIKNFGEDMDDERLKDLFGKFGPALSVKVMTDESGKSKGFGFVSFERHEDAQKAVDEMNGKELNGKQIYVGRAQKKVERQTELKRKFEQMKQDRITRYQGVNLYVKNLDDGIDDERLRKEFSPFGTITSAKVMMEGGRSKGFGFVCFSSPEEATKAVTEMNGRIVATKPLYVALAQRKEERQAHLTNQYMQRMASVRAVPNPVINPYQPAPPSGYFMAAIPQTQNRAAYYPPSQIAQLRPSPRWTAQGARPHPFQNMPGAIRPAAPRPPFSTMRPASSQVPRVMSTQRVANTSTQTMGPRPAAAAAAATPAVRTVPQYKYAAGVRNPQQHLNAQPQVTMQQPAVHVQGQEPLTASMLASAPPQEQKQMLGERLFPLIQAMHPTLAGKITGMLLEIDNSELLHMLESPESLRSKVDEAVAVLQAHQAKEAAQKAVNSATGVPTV

P388/ADR = assay: cells; type: functional; conditions: Mus musculus
[9] = molecular target: T4, Polyadenylate-binding protein 1; assay: MLLE binding blockers, Cy5 peptide tracer – biochemical, fluorescence polarization, Cy5-PAM2 peptide, secondary, miRNA deadenylation inhibitor project, dose response (AID 602260); type: functional; conditions: read-out: IC50_Mean
SN12K1 = assay: cells; type: functional; conditions: Homo sapiens
[10] = molecular target: DNA dC->dU-editing enzyme APOBEC-3G (Homo sapiens, UniProt Q9HC16); assay: Dose Response confirmation of small molecule APOBEC3G DNA Deaminase Inhibitors via a fluorescence-based single-stranded DNA deaminase assay. [Related pubchem assays (depositor defined):AID493012, AID493028]; type: functional
[11] = molecular target: DNA dC->dU-editing enzyme APOBEC-3A (Homo sapiens, UniProt P31941); assay: A3A deaminase inhibition for selectivity – biochemical, dose response (AID 504722); type: functional
Chain of DNA dC->dU-editing enzyme APOBEC-3A (P31941 whole entry): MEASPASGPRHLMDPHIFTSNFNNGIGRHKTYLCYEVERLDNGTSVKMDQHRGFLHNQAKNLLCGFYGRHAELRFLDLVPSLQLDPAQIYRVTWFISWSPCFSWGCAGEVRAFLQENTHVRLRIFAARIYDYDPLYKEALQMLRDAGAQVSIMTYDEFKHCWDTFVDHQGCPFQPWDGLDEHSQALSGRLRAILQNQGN

[12] = molecular target: T5, Voltage-gated N-type calcium channel alpha-1B subunit/Amyloid beta A4 precursor protein-binding family A member 1 (Homo sapiens, UniProt Q00975+Q02410); type: protein assay
T5 sequence (Q00975 whole entry): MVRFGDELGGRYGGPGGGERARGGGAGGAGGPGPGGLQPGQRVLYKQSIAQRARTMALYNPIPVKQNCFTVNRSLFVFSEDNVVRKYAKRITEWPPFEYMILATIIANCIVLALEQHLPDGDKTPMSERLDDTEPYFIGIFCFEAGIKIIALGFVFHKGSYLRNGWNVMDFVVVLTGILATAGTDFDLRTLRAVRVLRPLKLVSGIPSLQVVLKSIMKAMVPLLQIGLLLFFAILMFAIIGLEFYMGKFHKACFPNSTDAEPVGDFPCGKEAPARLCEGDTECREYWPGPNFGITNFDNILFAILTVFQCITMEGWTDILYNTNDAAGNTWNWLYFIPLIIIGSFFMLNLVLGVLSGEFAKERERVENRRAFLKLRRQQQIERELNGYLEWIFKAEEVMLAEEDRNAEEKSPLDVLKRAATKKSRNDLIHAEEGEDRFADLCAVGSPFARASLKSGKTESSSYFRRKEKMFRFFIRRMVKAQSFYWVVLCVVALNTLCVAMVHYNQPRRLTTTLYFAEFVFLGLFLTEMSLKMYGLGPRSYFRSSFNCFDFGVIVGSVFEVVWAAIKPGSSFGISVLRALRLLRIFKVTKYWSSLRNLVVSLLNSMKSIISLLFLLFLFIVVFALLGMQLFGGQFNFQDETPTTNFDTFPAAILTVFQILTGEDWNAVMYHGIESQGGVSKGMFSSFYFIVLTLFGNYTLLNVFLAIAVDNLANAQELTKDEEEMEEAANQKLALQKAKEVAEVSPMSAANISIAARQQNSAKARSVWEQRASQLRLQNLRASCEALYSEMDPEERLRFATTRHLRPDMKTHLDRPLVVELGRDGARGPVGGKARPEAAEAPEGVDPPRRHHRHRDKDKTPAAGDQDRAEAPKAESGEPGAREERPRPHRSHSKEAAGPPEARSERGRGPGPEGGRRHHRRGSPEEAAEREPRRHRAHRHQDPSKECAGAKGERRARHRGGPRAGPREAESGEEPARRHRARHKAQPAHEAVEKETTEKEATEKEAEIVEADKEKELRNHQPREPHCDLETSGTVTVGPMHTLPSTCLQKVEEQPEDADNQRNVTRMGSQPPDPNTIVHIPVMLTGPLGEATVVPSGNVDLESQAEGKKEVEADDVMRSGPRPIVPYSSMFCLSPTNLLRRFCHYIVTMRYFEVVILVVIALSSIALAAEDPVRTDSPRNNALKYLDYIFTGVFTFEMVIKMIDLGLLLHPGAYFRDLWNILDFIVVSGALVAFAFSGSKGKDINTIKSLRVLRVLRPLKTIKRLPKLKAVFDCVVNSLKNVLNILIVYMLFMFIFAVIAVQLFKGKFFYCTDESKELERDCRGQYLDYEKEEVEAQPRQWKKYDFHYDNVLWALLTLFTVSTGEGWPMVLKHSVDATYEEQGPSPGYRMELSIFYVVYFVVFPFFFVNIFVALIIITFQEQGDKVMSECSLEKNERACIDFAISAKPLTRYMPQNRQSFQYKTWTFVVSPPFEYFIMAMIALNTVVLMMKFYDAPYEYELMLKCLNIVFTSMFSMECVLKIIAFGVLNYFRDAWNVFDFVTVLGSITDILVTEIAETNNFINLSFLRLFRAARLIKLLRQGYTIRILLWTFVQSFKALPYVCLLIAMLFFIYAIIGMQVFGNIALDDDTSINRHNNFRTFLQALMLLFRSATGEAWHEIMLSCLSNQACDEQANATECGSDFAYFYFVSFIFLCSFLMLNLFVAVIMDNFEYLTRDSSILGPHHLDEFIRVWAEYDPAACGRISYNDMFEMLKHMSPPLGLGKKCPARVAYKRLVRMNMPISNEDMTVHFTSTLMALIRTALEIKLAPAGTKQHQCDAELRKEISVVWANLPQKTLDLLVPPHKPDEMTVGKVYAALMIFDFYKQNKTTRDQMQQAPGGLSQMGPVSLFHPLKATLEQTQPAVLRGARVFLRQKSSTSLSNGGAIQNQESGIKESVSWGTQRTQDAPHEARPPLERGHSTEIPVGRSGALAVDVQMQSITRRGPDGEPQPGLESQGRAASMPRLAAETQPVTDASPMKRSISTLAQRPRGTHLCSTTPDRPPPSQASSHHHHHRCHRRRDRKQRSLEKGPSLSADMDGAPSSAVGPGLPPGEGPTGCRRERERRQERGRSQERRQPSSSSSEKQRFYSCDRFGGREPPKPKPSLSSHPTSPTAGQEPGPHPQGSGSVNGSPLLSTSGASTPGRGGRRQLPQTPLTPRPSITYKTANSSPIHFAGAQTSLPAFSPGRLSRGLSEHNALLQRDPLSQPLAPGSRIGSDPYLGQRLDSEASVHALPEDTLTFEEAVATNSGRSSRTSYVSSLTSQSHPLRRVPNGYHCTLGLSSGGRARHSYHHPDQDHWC
T5 sequence (Q02410 whole entry): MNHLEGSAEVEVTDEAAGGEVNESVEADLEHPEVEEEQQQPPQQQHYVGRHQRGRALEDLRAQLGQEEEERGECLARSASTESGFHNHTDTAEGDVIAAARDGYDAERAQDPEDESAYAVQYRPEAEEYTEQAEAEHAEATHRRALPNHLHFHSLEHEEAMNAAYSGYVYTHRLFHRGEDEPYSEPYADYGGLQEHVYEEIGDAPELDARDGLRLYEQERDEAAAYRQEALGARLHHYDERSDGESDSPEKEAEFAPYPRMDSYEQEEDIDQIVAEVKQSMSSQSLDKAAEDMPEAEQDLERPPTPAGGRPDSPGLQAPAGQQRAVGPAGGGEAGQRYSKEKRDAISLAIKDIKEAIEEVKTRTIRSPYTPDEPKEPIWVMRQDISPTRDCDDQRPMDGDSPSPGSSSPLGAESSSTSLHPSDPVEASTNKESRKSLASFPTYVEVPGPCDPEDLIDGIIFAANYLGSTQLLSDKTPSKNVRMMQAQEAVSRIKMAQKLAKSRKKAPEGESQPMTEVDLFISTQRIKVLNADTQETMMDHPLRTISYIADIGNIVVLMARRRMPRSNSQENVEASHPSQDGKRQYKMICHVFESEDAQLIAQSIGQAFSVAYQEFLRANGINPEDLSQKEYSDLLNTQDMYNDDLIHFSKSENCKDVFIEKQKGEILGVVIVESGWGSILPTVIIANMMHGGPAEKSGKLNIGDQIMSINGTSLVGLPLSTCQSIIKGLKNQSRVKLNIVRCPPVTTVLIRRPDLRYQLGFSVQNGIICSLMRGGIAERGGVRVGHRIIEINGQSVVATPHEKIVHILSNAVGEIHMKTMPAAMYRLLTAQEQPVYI

[13] = molecular target: Eukaryotic translation initiation factor 4E (Mus musculus, UniProt P63073); assay: blockers of eIF4G binding by eIF4E – biochemical, TR-FRET, dose response (AID 855); type: functional;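 note: potency for disrupting eIF4E binding to eIF4GI seen as loss of FRET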
Chain of Eukaryotic translation initiation factor 4E (P63073 whole entry): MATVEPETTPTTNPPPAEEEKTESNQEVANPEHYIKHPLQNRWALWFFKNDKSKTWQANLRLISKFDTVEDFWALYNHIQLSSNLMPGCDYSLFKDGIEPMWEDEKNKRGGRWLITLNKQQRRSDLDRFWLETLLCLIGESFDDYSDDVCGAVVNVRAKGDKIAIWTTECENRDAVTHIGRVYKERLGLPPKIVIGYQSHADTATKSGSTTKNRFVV

[14] = molecular target: T5, Voltage-gated N-type calcium channel alpha-1B subunit/Amyloid beta A4 precursor protein-binding family A member 1; type: protein assay; remark: listed apart in the source
Protein RecA = molecular target: T6, Protein RecA (Mycobacterium tuberculosis, UniProt P9WHJ3); assay: Fluorescence Cell-Free Homogeneous Dose Retest to Identify Inhibitors of RecA-Intein Splicing Activity. [Related pubchem assays (depositor defined):AID2097, AID2223, AID489010, AID492950]; type: functional
T6 sequence (P9WHJ3 whole entry): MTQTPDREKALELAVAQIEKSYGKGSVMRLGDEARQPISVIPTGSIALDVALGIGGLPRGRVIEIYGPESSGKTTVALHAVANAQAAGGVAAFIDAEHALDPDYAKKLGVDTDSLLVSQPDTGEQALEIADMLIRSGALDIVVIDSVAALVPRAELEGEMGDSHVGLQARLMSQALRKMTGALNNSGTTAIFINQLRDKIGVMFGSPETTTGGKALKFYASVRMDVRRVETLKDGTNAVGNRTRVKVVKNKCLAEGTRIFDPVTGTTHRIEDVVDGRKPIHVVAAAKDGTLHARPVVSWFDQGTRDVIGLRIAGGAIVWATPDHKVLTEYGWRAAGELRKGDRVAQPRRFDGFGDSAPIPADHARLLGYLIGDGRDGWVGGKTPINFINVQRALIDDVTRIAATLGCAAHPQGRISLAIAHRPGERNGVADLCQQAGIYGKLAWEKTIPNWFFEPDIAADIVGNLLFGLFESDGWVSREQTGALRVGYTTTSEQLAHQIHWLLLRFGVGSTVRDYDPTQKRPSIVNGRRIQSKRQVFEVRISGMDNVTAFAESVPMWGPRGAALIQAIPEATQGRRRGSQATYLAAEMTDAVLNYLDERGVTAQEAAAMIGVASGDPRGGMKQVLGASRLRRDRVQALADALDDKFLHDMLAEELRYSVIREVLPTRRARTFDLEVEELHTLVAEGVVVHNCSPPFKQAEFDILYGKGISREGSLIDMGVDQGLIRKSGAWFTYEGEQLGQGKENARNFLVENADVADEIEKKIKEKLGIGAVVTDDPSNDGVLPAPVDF

[15] = Luminescence Cell-Based Dose Response HTS to Identify Inhibitors of 5'UTR Stem-Loop Driven Prion Protein mRNA Translation in H4 Neuroglioblastoma Cells. [Related pubchem assays: 1827 (Project Summary), 1813 (Primary HTS)]; type: functional
[16] = Luminescence Cell-Based Dose Confirmation HTS to Identify Inhibitors of Platelet Dense Granule Release. [Related pubchem assays: 1663 (Primary HTS), 1678 (Summary of Project)]; type: functional
[17] = microbe, parasite or virus in culture; type: functional; conditions: Mycobacterium tuberculosis
[18] = molecular target: T7, Luciferin 4-monooxygenase (Photinus pyralis, UniProt P08659); assay: Counter Screen for Luciferase-based Assay Positives. [Related pubchem assays: 620, 618, 411 ]
T7 sequence (P08659 whole entry): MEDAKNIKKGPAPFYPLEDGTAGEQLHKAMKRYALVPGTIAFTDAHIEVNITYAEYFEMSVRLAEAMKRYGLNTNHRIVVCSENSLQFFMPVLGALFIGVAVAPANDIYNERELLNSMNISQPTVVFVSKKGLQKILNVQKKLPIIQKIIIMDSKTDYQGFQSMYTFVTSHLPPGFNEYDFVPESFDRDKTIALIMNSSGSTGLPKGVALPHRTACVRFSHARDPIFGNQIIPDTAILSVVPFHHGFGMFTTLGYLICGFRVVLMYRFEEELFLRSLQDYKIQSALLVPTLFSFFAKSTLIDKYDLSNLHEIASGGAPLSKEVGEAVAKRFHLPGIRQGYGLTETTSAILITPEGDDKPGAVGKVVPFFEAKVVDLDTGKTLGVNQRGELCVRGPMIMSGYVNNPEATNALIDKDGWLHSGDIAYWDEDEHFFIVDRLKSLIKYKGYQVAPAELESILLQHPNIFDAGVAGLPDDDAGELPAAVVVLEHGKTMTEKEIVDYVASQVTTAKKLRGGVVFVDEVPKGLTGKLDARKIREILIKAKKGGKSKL

[19] = molecular target: T8, Replicative DNA helicase DnaB (Mycobacterium tuberculosis, UniProt P9WMR3); assay: DnaB intein splicing inhibitors, dose response, biochemical, cell-free fluorescence (AID 449749); type: functional
T8 sequence (P9WMR3 whole entry): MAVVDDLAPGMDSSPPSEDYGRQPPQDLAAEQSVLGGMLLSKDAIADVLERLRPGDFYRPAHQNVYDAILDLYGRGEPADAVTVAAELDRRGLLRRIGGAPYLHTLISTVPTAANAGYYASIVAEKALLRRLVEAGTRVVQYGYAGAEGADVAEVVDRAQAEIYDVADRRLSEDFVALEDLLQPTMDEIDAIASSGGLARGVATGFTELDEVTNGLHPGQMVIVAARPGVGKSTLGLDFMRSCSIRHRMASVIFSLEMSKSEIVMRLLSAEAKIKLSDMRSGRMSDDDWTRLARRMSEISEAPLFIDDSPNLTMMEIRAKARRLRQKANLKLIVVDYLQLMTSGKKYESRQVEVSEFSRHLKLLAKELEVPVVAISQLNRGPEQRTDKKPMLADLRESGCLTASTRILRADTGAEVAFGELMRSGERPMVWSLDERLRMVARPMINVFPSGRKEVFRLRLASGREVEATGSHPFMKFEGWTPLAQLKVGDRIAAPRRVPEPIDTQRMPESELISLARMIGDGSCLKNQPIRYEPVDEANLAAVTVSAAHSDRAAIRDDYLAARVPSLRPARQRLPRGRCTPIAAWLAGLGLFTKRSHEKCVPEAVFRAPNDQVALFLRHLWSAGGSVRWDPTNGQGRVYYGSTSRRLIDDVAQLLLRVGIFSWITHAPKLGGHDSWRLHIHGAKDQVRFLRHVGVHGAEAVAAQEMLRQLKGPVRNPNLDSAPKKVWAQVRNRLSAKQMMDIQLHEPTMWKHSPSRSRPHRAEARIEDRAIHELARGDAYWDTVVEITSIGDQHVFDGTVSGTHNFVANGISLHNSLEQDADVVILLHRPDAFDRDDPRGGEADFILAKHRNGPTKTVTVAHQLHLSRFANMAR

[20] = molecular target: T7, Luciferin 4-monooxygenase; assay: inhibition of purified Photinus pyralis luciferase – biochemical, luminescence, dose response (AID 1891)
HT-1080 = assay: HT1080 cell viability loss – fluorescence readout (AID 620); type: functional, cell-based; conditions: Homo sapiens

Structure (SMILES): Cc1cccc2c(N=Nc3ccccc3)c(O)[nH]c12
- EC50 [1]: > 67.5 µM (inactive)
- EC50 (cells): > 67.5 µM (inactive)
- EC50 [2]: > 67.5 µM (inactive)
- IC50 [3]: > 67.5 µM (inactive)

Structure (SMILES): CCOC(=O)c1sc(NC(=O)/C=C/c2cnn(C)c2C)c(C(=O)OCC)c1C
- IC50 (Prothrombin): > 50 µM (not active)

Structure (SMILES): COc1cc(OC)cc(-n2nnnc2SCC(=O)Nc2ccc(C(C)=O)cc2)c1
- EC50 [4]: 8.1 µM (active)
- IC50 (Prothrombin): > 50 µM (not active)
- EC50 [5]: 8.56 µM (active)
- EC50 [6]: 5.13 µM (active)

Structure (SMILES): CCC1(CC)Cc2ccccc2C2=C(C(=O)N3CCCCC3)C(=O)C(=O)N21
- IC50 [7]: > 50 µM (not active)

Structure (SMILES): Fc1ccccc1-c1nc(-c2ccccc2)no1
- EC50 [1]: > 67.5 µM (inactive)
- EC50 (cells): > 67.5 µM (inactive)

Structure (SMILES): CN1N=C(N)c2cn(C3OC(COP(=O)(O)O)C(O)C3O)c3ncnc1c23 (stereo not given)
- AC50 (Caspase-6): 29.6 µM (active)
- GI50 (P388): 0.5 µM (active)
- IC50 [8]: > 66 µM (inactive)
- GI50 (P388/ADR): 0.5 µM (active)
- IC50 [9]: > 66 µM (inactive)
- GI50 (SN12K1): 32.8 µM (inactive)

Structure (SMILES): Cc1ccc(C(=O)C2CC2)c(C)c1
- EC50 [2]: > 67.4 µM (inactive)
- IC50 [3]: > 67.4 µM (inactive)

Structure (SMILES): CCOC(=O)c1ccc(/N=c2\ssnc2Cl)cc1
- IC50 [10]: 13.8 µM (active)
- IC50 [11]: > 100 µM (inactive)
- IC50 [12]: 11.5 µM (active)
- IC50 [13]: 50 µM (inactive)
- IC50 [14]: 7.13 µM (active)
- IC50 [7]: > 50 µM (not active)

Structure (SMILES): OC1=C(/C=N/c2ccc3c(c2)OCO3)CCc2ccccc21
- EC50 (Protein RecA): 0.43 µM (active)
- EC50 [15]: 7.7 µM (active)
- IC50 [7]: 0.829 µM (active)
- EC50 [16]: 7.07 µM (active)
- CC50 [17]: > 40 µM (active)
- EC50 [18]: 2.31 µM (active)
- AC50 [19]: > 380 µM (inactive)
- EC50 [20]: 0.871 µM (active)
- EC50 (HT-1080): > 50 µM (not active)
